The numbers were not newly measured in patent US11576886B2, “Constructs comprising fatty acids” (POLYREM LIMITED, priority 2017, dated 2023), which cites them from elsewhere.

Molecules are shown by their SMILES.

This data set concerns Wnt/β-catenin signalling.
As to `CNCCC(Oc1ccc(C(F)(F)F)cc1)c1ccccc1` (centres unmarked) [Fluoxetine], the Wnt/β-catenin signalling result is given as “increase Wnt/β-catenin signalling”.

Consider `COCCCC/C(=N\OCCN)c1ccc(C(F)(F)F)cc1` [Fluvoxamine], for which the Wnt/β-catenin signalling result is “increase Wnt/β-catenin signalling”.

Consider `O=C(CCCN1CCC(O)(c2ccc(Cl)cc2)CC1)c1ccc(F)cc1` [Haloperidol], for which the Wnt/β-catenin signalling result is given as “increase Wnt/β-catenin signalling”.

Consider `Cc1nc2n(c(=O)c1CCN1CCC(c3noc4cc(F)ccc34)CC1)CCCC2` [Risperidone], for which the Wnt/β-catenin signalling entry was “increase Wnt/β-catenin signalling”.

On to `COc1ccc(C(CN(C)C)C2(O)CCCCC2)cc1` (centres unmarked) [Venlafaxine], for which the Wnt/β-catenin signalling entry is recorded as “increase Wnt/β-catenin signalling”.
